This is an account of results in publication PMC10377586 (Biomolecules, 2023).

Each structure is given as a SMILES string.

For one data set, the target named is T1, human PDE4B1 (Homo sapiens, UniProt Q07343).
T1 construct: purchased BPS Biosciences
Kind of data set: PDElight HTS cAMP phosphodiesterase assay, PDE4B1. The class given is biochemical. As to conditions: for IC50: read-out: PDE 4B1 IC50 ± SEM; for inhibition at 10 µM: read-out: PDE 4B1 % Inhibition ± SEM at 10 µM. On the procedure:
Further biological evaluation of the presented compound library was performed determining inhibitory potencies against selected human PDE isoforms, namely, PDE4 and PDE10 (for results see Table 3).
Tested and reference compounds were dissolved in dimethyl sulfoxide (DMSO) at a concentration of 10 mM and further diluted in assay buffer (10 mM Tris-HCl, 10 mM magnesium chloride and 0.05% Tween-20; pH 7.4). Inhibition of human PDE10A and 4B1 was measured using PDElight HTS cAMP phosphodiesterase assay kit (Lonza, Basel, Switzerland) according to manufacturer’s recommendations. Then, 10 ng of PDE10A and 5 ng of PDE4B1 (BPS Biosciences, San Diego, CA, USA) in appropriate buffer was incubated with reference and tested compound for 20 min. […] Then PDELight AMP Detection Reagent was added and incubated 10 min. All reactions were carried out at 37 °C in 96 white-walled, half-area-well plates (PerkinElmer). Luminescence was measured in a multifunction plate reader (POLARstar Omega, BMG Labtech, Ortenberg, Germany). The percentage of inhibition and IC50s were computed using GraphPad Prism Version 6.0 software.

The target in a further data set is T2, human A3 (hA3) ARs (Homo sapiens, UniProt P0DMS8).
T2 construct: expressed in transfected cells; host or cells: CHO cells (membranes)
T2 sequence (P0DMS8 1-318): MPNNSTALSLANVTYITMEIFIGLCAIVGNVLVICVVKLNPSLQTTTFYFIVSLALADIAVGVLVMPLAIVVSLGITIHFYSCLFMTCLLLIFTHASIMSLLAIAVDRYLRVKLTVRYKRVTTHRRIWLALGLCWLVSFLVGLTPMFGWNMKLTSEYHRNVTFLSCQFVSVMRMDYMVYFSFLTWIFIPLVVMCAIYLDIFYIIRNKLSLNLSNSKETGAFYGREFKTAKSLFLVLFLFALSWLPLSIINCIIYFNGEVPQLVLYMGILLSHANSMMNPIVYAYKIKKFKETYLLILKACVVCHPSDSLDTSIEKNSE
Put plainly: Radioligand binding [3H]PSB-11, CHO cell membranes. The conditions noted are these: for Ki: CHO cell membranes, read-out: hA3 [3H]PSB-11 Ki ± SEM; for inhibition at 1 µM: read-out: hA3 [3H]PSB-11 % inhibition ± SEM at 1 µM. Here is the method:
(§1) The final compounds were tested in radioligand binding assays to evaluate their affinity for all four ARs subtypes (see Table 2). Rat brain cortical membrane preparations were used as a source of rat A1 (rA1) ARs, and rat brain striatal membrane preparations served as a source of rat A2A (rA2A) ARs. For A2B- and A3AR assays, membrane preparations of Chinese hamster ovary (CHO) cells recombinantly expressing either human A2B (hA2B) or human A3 (hA3) ARs were employed.
(§2) Adenosine receptor radioligand binding assays were performed as previously described using rat brain cortical membrane preparations for A1 and rat brain striatal membrane preparations for A2A AR assays. Frozen rat brains (unstripped) were obtained from Pel Freez, Rogers, AR, USA. For assays at human AR subtypes, cell membranes of CHO cells recombinantly expressing the respective receptor were used. The following compounds were employed as radioligands: A1: [^3H]2-chloro-N^6-cyclopentyladenosine ([^3H]CCPA); A2A: [^3H]3-(3-hydroxypropyl)-7-methyl-8-(m-methoxystyryl)-1-propargylxanthine ([^3H]MSX-2); A2B: [^3H]8-(4-(4-(4-chlorophenyl)piperazine-1-sulfonyl)phenyl)-1-propylxanthine ([^3H]PSB-603); A3: [^3H]phenyl-8-ethyl-4-methyl-(8R)-4,5,7,8-tetrahydro-1H-imidazo[2,1-i]purine-5-one ([^3H]PSB-11). Initially, a single high concentration of compound was tested (1 µM). For potent compounds, full concentration–inhibition curves were determined using six to ten different concentrations of test compound spanning three orders of magnitude. At least three independent experiments were performed. Data were analyzed using GraphPad PRISM program version 4.0 or higher (Graph Pad, San Diego, CA, USA).

The next data set concerns the target T3, rat A2A (rA2A) ARs (Rattus norvegicus, UniProt P30543).
T3 construct: rat brain striatal membrane preparations for A2A AR assays; tissue Pel Freez; host or cells: rat brain striatum membranes
Put plainly: Radioligand binding [3H]MSX-2, rat brain striatal membranes. The conditions noted are these: read-out: rA2A [3H]MSX-2 Ki ± SEM. On the procedure: as §1, §2

For the next data set, the system named is SH-SY5Y cells. Kind of data set: Neuroprotection against H2O2-induced toxicity, LDH assay. As to conditions: 300 µM hydrogen peroxide, compounds at 10 or 50 µM. The data set is classed as cell-based. Here is the method:
For neuroprotection studies, a cellular model of neuroblastoma SH-SY5Y cells exposed to hydrogen peroxide was applied. Lactate dehydrogenase (LDH) release was used as a measure of cell death. First, the compounds (11a, 11c, 12, 13, 20a, 21, and 22) were tested for their possible intrinsic neurotoxicity to the SH-SY5Y cell line (see Supplementary Figure S1). […] All other compounds were tested for cytoprotective effects against H2O2-induced toxicity in SH-SY5Y cells.
Neuroblastoma SH-SY5Y cells were seeded at the density of 20,000 cells per well to 96-well plates one day before the experiment. Twelve hours prior to start of the assay, cell culture medium was replaced with the fresh portion of reduced serum (1%) medium. Tested compounds were added to the cells at the final concentration of 10 or 50 µM in 1% DMSO. In the neuroprotection studies, hydrogen peroxide, at a final concertation of 300 µM, was pipetted to the assay plate 1 h after tested compounds addition. Cell death, represented by the release of LDH through the perforated cell membrane, was measured following 14 h incubation of cells with the compounds and hydrogen peroxide. LDH levels in cell culture medium were determined using fluorometric CytoTox-ONE Homogeneous Membrane Integrity Assay (Promega Corporation, Madison, WI, USA), according to manufacturer’s instructions.
Figure 3 The ability of tested compounds to reduce the cytotoxicity of 300 μM hydrogen peroxide (HP) on dopaminergic neuronal cells (SH-SY5Y) as judged by LDH assay. Data represent the mean of two experiments performed in triplicate. Results are presented as percent of cytotoxicity induced by 300 µM hydrogen peroxide (HP) ± SEM. NT–vehicle control (1% DMSO).

T3 sequence (P30543 whole entry): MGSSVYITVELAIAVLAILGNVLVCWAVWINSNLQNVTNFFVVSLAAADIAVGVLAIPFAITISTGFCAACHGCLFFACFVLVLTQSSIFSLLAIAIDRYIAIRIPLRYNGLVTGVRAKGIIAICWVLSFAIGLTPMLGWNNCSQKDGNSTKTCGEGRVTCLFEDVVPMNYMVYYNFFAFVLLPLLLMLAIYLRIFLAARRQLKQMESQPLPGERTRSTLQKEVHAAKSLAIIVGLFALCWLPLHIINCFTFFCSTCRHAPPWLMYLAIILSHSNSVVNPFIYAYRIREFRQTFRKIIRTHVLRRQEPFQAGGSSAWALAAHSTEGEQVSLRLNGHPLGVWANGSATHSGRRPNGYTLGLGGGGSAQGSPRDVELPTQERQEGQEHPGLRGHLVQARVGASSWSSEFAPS
T1 sequence (Q07343 whole entry): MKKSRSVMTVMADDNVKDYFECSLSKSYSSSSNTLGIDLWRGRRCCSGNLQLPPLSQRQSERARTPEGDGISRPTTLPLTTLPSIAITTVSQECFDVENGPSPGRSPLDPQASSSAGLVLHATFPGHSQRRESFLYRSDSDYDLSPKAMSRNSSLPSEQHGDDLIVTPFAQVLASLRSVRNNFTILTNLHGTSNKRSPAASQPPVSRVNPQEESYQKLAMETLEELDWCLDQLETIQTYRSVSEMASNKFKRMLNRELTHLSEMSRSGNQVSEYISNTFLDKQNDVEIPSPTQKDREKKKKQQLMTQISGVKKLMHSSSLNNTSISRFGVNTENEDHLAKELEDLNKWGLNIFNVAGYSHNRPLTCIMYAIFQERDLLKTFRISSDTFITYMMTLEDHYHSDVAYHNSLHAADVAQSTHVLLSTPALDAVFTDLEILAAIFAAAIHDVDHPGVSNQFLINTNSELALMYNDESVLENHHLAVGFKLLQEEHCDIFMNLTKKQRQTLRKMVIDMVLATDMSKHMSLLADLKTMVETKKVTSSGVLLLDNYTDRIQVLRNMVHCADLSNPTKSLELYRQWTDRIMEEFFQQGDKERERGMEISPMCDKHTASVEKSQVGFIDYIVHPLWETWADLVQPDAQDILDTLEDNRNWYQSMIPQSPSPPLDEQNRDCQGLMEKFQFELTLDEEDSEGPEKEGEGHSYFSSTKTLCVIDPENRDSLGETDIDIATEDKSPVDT

By IC50 is commonly meant the point on the concentration scale where inhibition reaches its midpoint. Broadly, the Ki is a measure of affinity in units of concentration, obtained from inhibition or displacement. What is called inhibition is the drop in the measured response relative to a control, in per cent. What is called melting point is the temperature, or range, at which the solid turns liquid. The compound `Cn1c(=O)c2c(nc(NCCc3ccc(O)c(O)c3)n2C)n(C)c1=O` [Compound 11a, 8-((3,4-Dihydroxyphenethyl)amino)-1,3,7-trimethyl-3,7-dihydro-1H-purine-2,6-dione] gave a melting point of 204 to 206 °C. Also, the half-maximal inhibitory concentration (IC50) on human PDE4B1 is 7850 ± 1850 nM. Besides, at human A3 (hA3) ARs, the inhibition constant (Ki) was over 1000 nM and the inhibition at 1 µM is -1%. Besides, the inhibition constant (Ki) at rat A2A (rA2A) ARs stood at 370 ± 63 nM.
In the same order, the values of `CCn1c(NCCc2ccc(O)c(O)c2)nc2c1c(=O)n(C)c(=O)n2C` [Compound 11b, 8-((3,4-Dihydroxyphenethyl)amino)-7-ethyl-1,3-dimethyl-3,7-dihydro-1H-purine-2,6-dione] are 225 to 226 °C, 2520 ± 140 nM, over 1000 nM, -5% and 672 ± 83 nM.
On to `CCCn1c(NCCc2ccc(O)c(O)c2)nc2c1c(=O)n(C)c(=O)n2C` [Compound 11c, 8-((3,4-Dihydroxyphenethyl)amino)-1,3-dimethyl-7-propyl-3,7-dihydro-1H-purine-2,6-dione], for which, at human PDE4B1, the IC50 came to 3320 ± 800 nM. Moreover, the “dose dependence of cytoprotective effect” value with SH-SY5Y cells is “Dose-dependent responses”. Moreover, the Ki on human A3 (hA3) ARs was over 1000 nM; at rat A2A (rA2A) ARs, 4720 ± 930 nM. The inhibition at 1 µM on human A3 (hA3) ARs was found to be 5%.
Compound `CC(C)n1c(NCCc2ccc(O)c(O)c2)nc2c1c(=O)n(C)c(=O)n2C` [Compound 11d, 8-((3,4-Dihydroxyphenethyl)amino)-7-isopropyl-1,3-dimethyl-3,7-dihydro-1H-purine-2,6-dione] displayed a melting point of 180 to 182 °C. Further, at human PDE4B1, the concentration for half-maximal inhibition (IC50) came out at 2440 ± 800 nM. Besides, at human A3 (hA3) ARs, the Ki is over 1000 nM and the inhibition at 1 µM turned out to be 12%. The inhibition constant (Ki) on rat A2A (rA2A) ARs was determined as 1150 ± 140 nM.
With `CCCCn1c(NCCc2ccc(O)c(O)c2)nc2c1c(=O)n(C)c(=O)n2C` [Compound 11e, 7-Butyl-8-((3,4-dihydroxyphenethyl)amino)-1,3-dimethyl-3,7-dihydro-1H-purine-2,6-dione], the concentration for half-maximal inhibition (IC50) on human PDE4B1 worked out at 3160 ± 530 nM. Further, at human A3 (hA3) ARs, the inhibition constant Ki was over 1000 nM and the inhibition at 1 µM worked out at 0%. Further, on rat A2A (rA2A) ARs, the inhibition constant (Ki) is 1700 ± 260 nM.
In the same order, the values of `CC(C)Cn1c(NCCc2ccc(O)c(O)c2)nc2c1c(=O)n(C)c(=O)n2C` [Compound 11f, 8-((3,4-Dihydroxyphenethyl)amino)-7-isobutyl-1,3-dimethyl-3,7-dihydro-1H-purine-2,6-dione] are 3760 ± 160 nM, over 1000 nM, -6% and 6860 ± 770 nM.
For `CCC(C)n1c(NCCc2ccc(O)c(O)c2)nc2c1c(=O)n(C)c(=O)n2C` (stereo not drawn) [Compound 11g, 7-(Sec-butyl)-8-((3,4-dihydroxyphenethyl)amino)-1,3-dimethyl-3,7-dihydro-1H-purine-2,6-dione], in that order: 4410 ± 230 nM, over 1000 nM, -4% and 8980 ± 150 nM.
On to `CCCCCn1c(NCCc2ccc(O)c(O)c2)nc2c1c(=O)n(C)c(=O)n2C` [Compound 11h, 8-((3,4-Dihydroxyphenethyl)amino)-1,3-dimethyl-7-pentyl-3,7-dihydro-1H-purine-2,6-dione], for which the IC50 at human PDE4B1 came to 4430 ± 250 nM. In addition, on human A3 (hA3) ARs, the Ki was over 1000 nM and the inhibition at 1 µM amounted to 0%. The Ki at rat A2A (rA2A) ARs came to 2220 ± 260 nM.
Consider `Cn1c(=O)c2c(nc(NCCc3ccc(O)c(O)c3)n2Cc2ccccc2)n(C)c1=O` [Compound 11j, 7-Benzyl-8-((3,4-dihydroxyphenethyl)amino)-1,3-dimethyl-3,7-dihydro-1H-purine-2,6-dione], for which, on human PDE4B1, the IC50 came to 3290 ± 540 nM. In addition, on human A3 (hA3) ARs, the inhibitory constant (Ki) was over 1000 nM and the inhibition at 1 µM stood at 7%. In addition, the inhibition constant Ki on rat A2A (rA2A) ARs was 3600 ± 290 nM.
Compound `Cn1c(=O)c2c(nc(NCCc3ccc(O)c(O)c3)n2CCOc2ccccc2)n(C)c1=O` [Compound 11l, 8-((3,4-Dihydroxyphenethyl)amino)-1,3-dimethyl-7-(2-phenoxyethyl)-3,7-dihydro-1H-purine-2,6-dione] yielded a melting point of 218 to 220 °C. Also, on human PDE4B1, the inhibition at 10 µM was found to be 20% and the IC50 was over 10000 nM. Also, on human A3 (hA3) ARs, the inhibition constant Ki is over 1000 nM and the inhibition at 1 µM was -2%. Further, the inhibition constant Ki at rat A2A (rA2A) ARs turned out to be 1380 ± 120 nM.
In the case of `CCCn1c(=O)c2c(nc(NCCc3ccc(O)c(O)c3)n2CCC)n(CCC)c1=O` [Compound 12, 8-((3,4-Dihydroxyphenethyl)amino)-1,3,7-tripropyl-3,7-dihydro-1H-purine-2,6-dione], on human PDE4B1, the 50% inhibitory concentration (IC50) was found to be 14500 ± 480 nM. Further, in the data set with SH-SY5Y cells, the “cytoprotective effect against H2O2-induced toxicity (LDH release)” value is listed as “most potent” and the “dose dependence of cytoprotective effect” value was “Dose-dependent responses”. Also, on human A3 (hA3) ARs, the inhibitory constant (Ki) is over 1000 nM and the inhibition at 1 µM amounted to 25%. Further, the inhibition constant Ki at rat A2A (rA2A) ARs was found to be 833 ± 81 nM.
For the compound `CCCCn1c(=O)c2c(nc(NCCc3ccc(O)c(O)c3)n2CCC)n(CCCC)c1=O` [Compound 13, 1,3-Dibutyl-8-((3,4-dihydroxyphenethyl)amino)-7-propyl-3,7-dihydro-1H-purine-2,6-dione], at human PDE4B1, the inhibition at 10 µM is 28% and the concentration for half-maximal inhibition (IC50) is over 10000 nM. In addition, at human A3 (hA3) ARs, the Ki is over 1000 nM and the inhibition at 1 µM was 17%. Further, the inhibitory constant (Ki) at rat A2A (rA2A) ARs came out at 1320 ± 250 nM.
On to `Cn1c(=O)c2c(nc3n2CCCCN3CCc2ccc(O)c(O)c2)n(C)c1=O` [Compound 20b, 10-(3,4-Dihydroxyphenethyl)-1,3-dimethyl-7,8,9,10-tetrahydro-1H-[1, 3]diazepino[2,1-f]purine-2,4(3H,6H)-dione], for which the melting point was 232 to 235 °C. Also, at human PDE4B1, the inhibition at 10 µM was 45% and the IC50 is over 10000 nM. Also, at human A3 (hA3) ARs, the Ki is over 1000 nM and the inhibition at 1 µM is -2%. Further, on rat A2A (rA2A) ARs, the Ki was determined as 234 ± 55 nM.
